Source: patent US10052330B2, “Substituted pyrido[3,4-b]pyrazines as Syk inhibitors” (HUTCHISON MEDIPHARMA LIMITED, priority 2011, dated 2018)
Where two headings read alike, the source gives them in different places.

Key:
RBL-2H3 cells = test: IgE-induced Beta-hexosaminidase secretion in RBL-2H3 cells; type: cell-based; details: Rattus norvegicus
Syk kinase = Syk kinase (Homo sapiens, UniProt P43405); test: Syk kinase enzymatic assay (Kit-Tyr 2 Peptide); type: biochemical
[1] = RBL-2H3, RBL-2H3 cells sensitized with SPE-7, stimulated with DNP-BSA, upper bound of each range is 'less than', read-out: IC50, IgE-induced Beta-hexosaminidase secretion
[2] = 8 concentrations, 1 μM down to 0.0003 μM, upper bound of each range is 'less than', read-out: IC50: Enzymatic Activity (Syk kinase)

| Compound | IC50 (RBL-2H3 cells; [1]) [nM] | IC50 (Syk kinase; [2]) [nM] | IC50 (RBL-2H3 cells; RBL-2H3, read-out: IC50, IgE-induced Beta-hexosaminidase secretion) [nM] | IC50 (Syk kinase) [nM] |
| --- | --- | --- | --- | --- |
| CCn1cc(-c2cc3nccnc3c(NC[C@H]3CNCCC3(F)F)n2)cn1 [Compound 393, (R)—N-((4,4-difluoropiperidin-3-yl)methyl)-7-(1-ethyl-1H-pyrazol-4-yl)pyrido[4,3-b]pyrazin-5-amine] | 1 to 100 | 100 to 1000 |  |  |
| CN(c1ccc(-c2cc3nccnc3c(NC[C@@H]3CNCCC3(F)F)n2)cc1)S(C)(=O)=O [Compound 394, (S)—N-(4-(5-((4,4-difluoropiperidin-3-yl)methylamino)pyrido[4,3-b]pyrazin-7-yl)phenyl)-N-methylmethanesulfonamide] | 1 to 100 | 1 to 100 |  |  |
| CN(c1ccc(-c2cc3nccnc3c(NC[C@H]3CNCCC3(F)F)n2)cc1)S(C)(=O)=O [Compound 395, (R)—N-(4-(5-((4,4-difluoropiperidin-3-yl)methylamino)pyrido[4,3-b]pyrazin-7-yl)phenyl)-N-methylmethanesulfonamide] | 1 to 100 | 100 to 1000 |  |  |
| C[C@H]1CN(c2ccc(-c3cc4nccnc4c(NC[C@H]4CNCCC4(F)F)n3)cc2)CCO1 [Compound 397, (R)—N-((4,4-difluoropiperidin-3-yl)methyl)-7-(4-((S)-2-methylmorpholino)phenyl)pyrido[4,3-b]pyrazin-5-amine] | 1 to 100 | 1 to 100 |  |  |
| FC1(F)CCNC[C@H]1CNc1nc(-c2cnn(C3CCOCC3)c2)cc2nccnc12 [Compound 398, (S)—N-((4,4-difluoropiperidin-3-yl)methyl)-7-(1-(tetrahydro-2H-pyran-4-yl)-1H-pyrazol-4-yl)pyrido[4,3-b]pyrazin-5-amine] | 1 to 100 | 1 to 100 |  |  |
| FC1(F)CCNC[C@@H]1CNc1nc(-c2cnn(C3CCOCC3)c2)cc2nccnc12 [Compound 399, (R)—N-((4,4-difluoropiperidin-3-yl)methyl)-7-(1-(tetrahydro-2H-pyran-4-yl)-1H-pyrazol-4-yl)pyrido[4,3-b]pyrazin-5-amine] | 1 to 100 | 1 to 100 |  |  |
| O=S(=O)(C1CC1)N1CCN(c2ccc(-c3cc4nccnc4c(NC[C@@H]4CNCCO4)n3)cc2)CC1 [Compound 400, (S)-7-(4-(4-(cyclopropylsulfonyl)piperazin-1-yl)phenyl)-N-(morpholin-2-ylmethyl)pyrido[4,3-b]pyrazin-5-amine] | 1 to 100 | 1 to 100 |  |  |
| CC(C)S(=O)(=O)N1CCN(c2ccc(-c3cc4nccnc4c(NC[C@@H]4CNCCO4)n3)cc2)CC1 [Compound 401] | 100 to 1000 | 1 to 100 |  |  |
| CC1(C(=O)N2CCN(c3ccc(-c4cc5nccnc5c(NC[C@@H]5CNCCO5)n4)cc3)CC2)CC1 [Compound 402] | 1 to 100 | 1 to 100 |  |  |
| O=C(CC1CC1)N1CCN(c2ccc(-c3cc4nccnc4c(NC[C@@H]4CNCCO4)n3)cc2)CC1 [Compound 403] | 100 to 1000 | 1 to 100 |  |  |
| CC1(C(=O)N2CCN(c3ccc(-c4cc5nccnc5c(NC[C@@H]5CNCCO5)n4)cc3)CC2)COC1 [Compound 404] | 100 to 1000 | 1 to 100 |  |  |
| CC(C)C(=O)N1CCN(c2ccc(-c3cc4nccnc4c(NC[C@@H]4CNCCO4)n3)cc2)CC1 [Compound 405] | 1 to 100 | 1 to 100 |  |  |
| C[C@@H](O)C(=O)N1CCN(c2ccc(-c3cc4nccnc4c(NC[C@@H]4CNCCO4)n3)cc2)CC1 [Compound 406] | 100 to 1000 | 1 to 100 |  |  |
| O=C(C(F)F)N1CCN(c2ccc(-c3cc4nccnc4c(NC[C@@H]4CNCCO4)n3)cc2)CC1 [Compound 407] | 1 to 100 | 1 to 100 |  |  |
| C[C@H](O)C(=O)N1CCN(c2ccc(-c3cc4nccnc4c(NC[C@@H]4CNCCO4)n3)cc2)CC1 [Compound 408] | 100 to 1000 | 1 to 100 |  |  |
| N#CCC(=O)N1CCN(c2ccc(-c3cc4nccnc4c(NC[C@@H]4CNCCO4)n3)cc2)CC1 [Compound 409] | 100 to 1000 | 1 to 100 |  |  |
| O=C(CCO)N1CCN(c2ccc(-c3cc4nccnc4c(NC[C@@H]4CNCCO4)n3)cc2)CC1 [Compound 410] | 100 to 1000 | 1 to 100 |  |  |
| O=C(CC(F)(F)F)N1CCN(c2ccc(-c3cc4nccnc4c(NC[C@@H]4CNCCO4)n3)cc2)CC1 [Compound 411] | 1 to 100 | 1 to 100 |  |  |
| CC(C)(O)C(=O)N1CCN(c2ccc(-c3cc4nccnc4c(NC[C@@H]4CNCCO4)n3)cc2)CC1 [Compound 412] | 100 to 1000 | 1 to 100 |  |  |
| O=C(C1CCC1)N1CCN(c2ccc(-c3cc4nccnc4c(NC[C@@H]4CNCCO4)n3)cc2)CC1 [Compound 413] | 1 to 100 | 1 to 100 |  |  |
| O=C(C1CCCC1)N1CCN(c2ccc(-c3cc4nccnc4c(NC[C@@H]4CNCCO4)n3)cc2)CC1 [Compound 414] | 1 to 100 | 1 to 100 |  |  |
| O=C([C@@H]1CCCO1)N1CCN(c2ccc(-c3cc4nccnc4c(NC[C@@H]4CNCCO4)n3)cc2)CC1 [Compound 415] | 1 to 100 | 1 to 100 |  |  |
| O=C([C@H]1CCCO1)N1CCN(c2ccc(-c3cc4nccnc4c(NC[C@@H]4CNCCO4)n3)cc2)CC1 [Compound 416] | 1 to 100 | 1 to 100 |  |  |
| O=C([C@@H]1CCOC1)N1CCN(c2ccc(-c3cc4nccnc4c(NC[C@@H]4CNCCO4)n3)cc2)CC1 [Compound 417] | 100 to 1000 | 1 to 100 |  |  |
| CC(=O)N1CCC(c2ccc(-c3cc4nccnc4c(NC[C@@H]4CNCCO4)n3)cc2)CC1 [Compound 418] | 1 to 100 | 1 to 100 |  |  |
| CC(=O)N(C)C1CCN(c2ccc(-c3cc4nccnc4c(NC[C@@H]4CNCCO4)n3)cc2)CC1 [Compound 420] | 100 to 1000 | 1 to 100 |  |  |

| Compound | IC50 (RBL-2H3 cells; [1]) [nM] | IC50 (Syk kinase; [2]) [nM] | IC50 (RBL-2H3 cells; RBL-2H3, read-out: IC50, IgE-induced Beta-hexosaminidase secretion) [nM] | IC50 (Syk kinase) [nM] |
| --- | --- | --- | --- | --- |
| O=C(c1ccoc1)N1CCN(c2ccc(-c3cc4nccnc4c(NCC4CNCCO4)n3)cc2)CC1 (stereo not drawn) [Compound 421] | 1 to 100 | 1 to 100 |  |  |
| N#CC1(C(=O)N2CCN(c3ccc(-c4cc5nccnc5c(NCC5CNCCO5)n4)cc3)CC2)CC1 (stereo not drawn) [Compound 423] | 1 to 100 | 1 to 100 |  |  |
| O=C(CF)N1CCN(c2ccc(-c3cc4nccnc4c(NCC4CNCCO4)n3)cc2)CC1 (stereo not drawn) [Compound 424] |  |  | 1 to 100 | 1 to 100 |
| O=C(c1ccco1)N1CCN(c2ccc(-c3cc4nccnc4c(NCC4CNCCO4)n3)cc2)CC1 (stereo not drawn) [Compound 425] | 1 to 100 | 1 to 100 |  |  |
| CCCC(=O)N1CCN(c2ccc(-c3cc4nccnc4c(NC[C@@H]4CNCCO4)n3)cc2)CC1 [Compound 426] | 1 to 100 | 1 to 100 |  |  |
| O=C(C(F)F)N1CCN(c2ccc(-c3cc4nccnc4c(NC[C@@H]4CNCCO4)n3)cc2F)CC1 [Compound 427] | 1 to 100 | 1 to 100 |  |  |
| O=C(CC(F)(F)F)N1CCN(c2ccc(-c3cc4nccnc4c(NC[C@@H]4CNCCO4)n3)cc2F)CC1 [Compound 428] | 1 to 100 | 1 to 100 |  |  |
| CCC(=O)N1CCN(c2ccc(-c3cc4nccnc4c(NC[C@@H]4CNCCO4)n3)cc2F)CC1 [Compound 429] | 1 to 100 | 1 to 100 |  |  |
| O=C(C1CC(F)(F)C1)N1CCN(c2ccc(-c3cc4nccnc4c(NC[C@@H]4CNCCO4)n3)cc2)CC1 [Compound 432] | 1 to 100 | 1 to 100 |  |  |
| CC(F)C(=O)N1CCN(c2ccc(-c3cc4nccnc4c(NC[C@@H]4CNCCO4)n3)cc2)CC1 (stereo partly drawn) [Compound 433] | 1 to 100 | 1 to 100 |  |  |
| N#CCCC(=O)N1CCN(c2ccc(-c3cc4nccnc4c(NC[C@@H]4CNCCO4)n3)cc2)CC1 [Compound 434] | 100 to 1000 | 1 to 100 |  |  |
| CCS(=O)(=O)N1CCN(c2ccc(-c3cc4nccnc4c(NC[C@@H]4CNCCO4)n3)cc2)CC1 [Compound 435] | 1 to 100 | 1 to 100 |  |  |
| CC(C)(F)C(=O)N1CCN(c2ccc(-c3cc4nccnc4c(NC[C@@H]4CNCCO4)n3)cc2)CC1 [Compound 437] | 1 to 100 | 1 to 100 |  |  |
| CC(F)(F)C(=O)N1CCN(c2ccc(-c3cc4nccnc4c(NC[C@@H]4CNCCO4)n3)cc2)CC1 [Compound 438] | 1 to 100 | 1 to 100 |  |  |
| O=C(C1CC1(F)F)N1CCN(c2ccc(-c3cc4nccnc4c(NC[C@@H]4CNCCO4)n3)cc2)CC1 (stereo partly drawn) [Compound 439] | 1 to 100 | 1 to 100 |  |  |
| CS(=O)(=O)N1CCN(c2ccc(-c3cc4nccnc4c(NC[C@@H]4CNCCO4)n3)cn2)CC1 [Compound 440] | 100 to 1000 | 1 to 100 |  |  |
| CCS(=O)(=O)N1CCN(c2ccc(-c3cc4nccnc4c(NC[C@@H]4CNCCO4)n3)cn2)CC1 [Compound 441] | 100 to 1000 | 1 to 100 |  |  |
| CS(=O)(=O)N1CCN(c2ccc(-c3cc4nccnc4c(NCC4CNCCC4(F)F)n3)cn2)CC1 (stereo not drawn) [Compound 442] | 1 to 100 | 1 to 100 |  |  |
| CCS(=O)(=O)N1CCN(c2ccc(-c3cc4nccnc4c(NCC4CNCCC4(F)F)n3)cn2)CC1 (stereo not drawn) [Compound 443] | 1 to 100 | 1 to 100 |  |  |
| CS(=O)(=O)N1CCN(c2ccc(-c3cc4nccnc4c(NCC4CNCCC4(F)F)n3)cc2)CC1 (stereo not drawn) [Compound 444] | 1 to 100 | 1 to 100 |  |  |
| CCS(=O)(=O)N1CCN(c2ccc(-c3cc4nccnc4c(NCC4CNCCC4(F)F)n3)cc2)CC1 (stereo not drawn) [Compound 445] | 1 to 100 | 1 to 100 |  |  |
| CCS(=O)(=O)N1CCC(c2ccc(-c3cc4nccnc4c(NC[C@@H]4CNCCO4)n3)cc2)CC1 [Compound 446] | 1 to 100 | 1 to 100 |  |  |
| CS(=O)(=O)N1CCC(c2ccc(-c3cc4nccnc4c(NCC4CNCCC4(F)F)n3)cc2)CC1 (stereo not drawn) [Compound 447] | 1 to 100 | 1 to 100 |  |  |
| CN1CCN(c2ccc(-c3cc4nccnc4c(NC[C@@H]4CN(C(=O)C(F)F)CCO4)n3)cc2)CC1 [Compound 449, (R)-2,2-difluoro-1-(2-((7-(4-(4-methylpiperazin-1-yl)phenyl)pyrido[4,3-b]pyrazin-5-ylamino)methyl)morpholino)ethanone] | 1 to 100 | 1 to 100 |  |  |
| Cc1cc(-c2cc3nccnc3c(NC[C@@H]3CN(C(=O)C(F)F)CCO3)n2)ccc1N1CCOCC1 [Compound 450] | 1 to 100 | 1 to 100 |  |  |
